# Experiments:
# Solubility (SolRank) = format: physicochemical; details: pH 7.4
# PAMPA = format: in vitro ADME; details: pH 7.4
# [1] = Caco-2 permeability assay; format: in vitro ADME; details: human
# [2] = format: in vitro ADME
# [3] = format: in vitro ADME; remark: listed apart in the source
# [4] = Plasma protein binding, mouse; format: in vitro ADME; details: read-out: Plasma protein binding (% bound) mouse (converted)
# [5] = Plasma protein binding, human; format: in vitro ADME; details: read-out: Plasma protein binding (% bound) human (converted)
# in vivo = assay: in vivo
# Description: Later, this drug served as the parental compound for the generation of novel covalently binding CDK7-directed warheads (Figure 2A, panels a–h). To reveal LDC4297, a chemical library was designed in silico for the targeting of kinases and was applied for screening against human CDK7–cyclin H–MAT1 by the use of in vitro kinase assays. […] In particular, a kinome-wide analysis with 333 individual kinases was performed to assess compound selectivity in vitro.
# (A) Chemical linkage of an acceptor for the Michael 1,4 addition reaction was performed to generate QRS compounds 6, 7, and 9. Through the covalent binding of host target CDK7, a block of virus-supportive functions was achieved, and further details on this antiviral strategy were described elsewhere (a,b; c,d, this study, and Yu et al., in preparation; d–f; f–h). (B) Determination of in vitro eADME parameters (early […]-distribution-metabilism-excretion) and pharmacokinetics (PK) parameters, including mean plasma concentrations in vivo (male CD-1® mice).
# HCMV AD169-GFP = test system: HCMV AD169-GFP; design: method as in PMID 25624324; details: read-out: antiviral EC50 value (HCMV); cited from earlier work
# human CDK7–cyclin H–MAT1 = test system: human CDK7–cyclin H–MAT1; design: method as in PMID 25624324; details: cited from earlier work
# CDK7–cyclin H–MAT1 = molecular target: T1, CDK7–cyclin H–MAT1 (Homo sapiens, UniProt P50613); design: method as in PMID 25624324; details: kinome-wide panel of 333 kinases; cited from earlier work
# T1 construct: purchased Invitrogen PR6749B
# T1 sequence (P50613 whole entry): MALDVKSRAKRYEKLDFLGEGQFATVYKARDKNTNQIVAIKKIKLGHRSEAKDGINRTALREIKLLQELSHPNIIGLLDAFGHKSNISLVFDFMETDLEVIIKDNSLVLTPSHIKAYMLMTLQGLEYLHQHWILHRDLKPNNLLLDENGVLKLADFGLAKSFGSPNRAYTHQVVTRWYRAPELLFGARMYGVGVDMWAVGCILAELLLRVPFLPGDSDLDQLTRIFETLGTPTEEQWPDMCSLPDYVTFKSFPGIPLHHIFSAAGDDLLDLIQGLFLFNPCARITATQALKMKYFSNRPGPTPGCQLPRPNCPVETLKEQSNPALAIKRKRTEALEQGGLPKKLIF
# T1 sequence (P51946 whole entry partner): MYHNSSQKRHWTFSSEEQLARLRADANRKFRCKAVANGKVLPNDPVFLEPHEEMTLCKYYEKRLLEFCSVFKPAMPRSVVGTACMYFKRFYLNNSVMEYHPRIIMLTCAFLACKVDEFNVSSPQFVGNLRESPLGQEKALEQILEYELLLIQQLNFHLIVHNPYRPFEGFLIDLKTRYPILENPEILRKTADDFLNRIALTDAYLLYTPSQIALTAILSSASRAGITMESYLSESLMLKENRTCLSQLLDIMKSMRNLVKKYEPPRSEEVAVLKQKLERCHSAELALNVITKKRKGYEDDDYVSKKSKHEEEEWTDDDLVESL
# T1 sequence (P51948 whole entry partner): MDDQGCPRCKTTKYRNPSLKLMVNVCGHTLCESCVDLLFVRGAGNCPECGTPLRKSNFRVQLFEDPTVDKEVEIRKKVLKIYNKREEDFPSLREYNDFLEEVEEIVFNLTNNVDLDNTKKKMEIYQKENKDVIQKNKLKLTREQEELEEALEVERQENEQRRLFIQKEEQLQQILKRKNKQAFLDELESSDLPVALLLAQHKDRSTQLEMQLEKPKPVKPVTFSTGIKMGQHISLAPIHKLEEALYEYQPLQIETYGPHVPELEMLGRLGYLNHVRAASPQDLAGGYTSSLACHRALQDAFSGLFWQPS
# HCMV-encoded vCDK/pUL97 = test system: HCMV-encoded vCDK/pUL97; design: method as in PMID 37591314; details: cited from earlier work
# [6] = male, CD-1, mouse, in vivo, po, 100 mg/kg
smiles,measurement,setting,value
CC(C)c1cnn2c(NCc3ccccc3-n3cccn3)nc(OC3CCCNC3)nc12 (centres unmarked) [LDC4297],solubility,Solubility (SolRank),373 µM
same,PAMPA (% Flux),PAMPA,76.25 % Flux
same,Papp A→B,[1]; A→B,15.4 ×10⁻⁶ cm/s
same,efflux ratio,"[1]; efflux ratio, read-out: Caco-2 permeability B→A / A→B",1.57
same,Plasma stability (% remain) mouse,[2],100.0 % remain
same,Plasma stability (% remain) human,[3],91.6 % remain
same,fraction unbound,[4],0.0951
same,fraction unbound,[5],0.142
same,AUC(0-inf),in vivo; [6],3620 ng·h/mL
same,AUC(0-t),in vivo; [6],3520 ng·h/mL
same,Cmax,in vivo; [6],1300 ng/mL
same,Tmax,in vivo; [6],0.5 h
same,bioavailability,in vivo; [6],97.7%
same,half-life,in vivo; [6],1.6 h
same,tz,in vivo; [6],8 h
same,concentration at 8 h,"in vivo; male, CD-1, mouse, in vivo, po, 100 mg/kg, Cz, mouse 100 mg/kg p.o.",43.2 ng/mL
same,concentration at 0 min,"in vivo; male, CD-1, mouse, in vivo, po, 100 mg/kg, Mean plasma concentration, mouse 100 mg/kg p.o., sampling time 0 min",0 ng/mL
same,concentration at 30 min,"in vivo; male, CD-1, mouse, in vivo, po, 100 mg/kg, Mean plasma concentration, mouse 100 mg/kg p.o., sampling time 30 min",> 1200 ng/mL
same,concentration at 90 min,"in vivo; male, CD-1, mouse, in vivo, po, 100 mg/kg, Mean plasma concentration, mouse 100 mg/kg p.o., sampling time 90 min",713 ± 411 ng/mL
same,concentration at 240 min,"in vivo; male, CD-1, mouse, in vivo, po, 100 mg/kg, Mean plasma concentration, mouse 100 mg/kg p.o., sampling time 240 min",373 ± 108 ng/mL
same,concentration at 480 min,"in vivo; male, CD-1, mouse, in vivo, po, 100 mg/kg, Mean plasma concentration, mouse 100 mg/kg p.o., sampling time 480 min",43.2 ± 44 ng/mL
same,Mean plasma concentration,"in vivo; mouse 100 mg/kg p.o., sampling time 30 min",1297.6 ± 678.0 ng/mL
same,EC50,HCMV AD169-GFP,24.5 ± 1.3 nM
same,IC50,human CDK7–cyclin H–MAT1,< 5 nM
same,residual activity in the presence of LDC4297,CDK7–cyclin H–MAT1,2%
same,secondary targeting activity against vCDK/pUL97,HCMV-encoded vCDK/pUL97,lack of a secondary targeting activity

# Source: publication PMC10892818, “An Antiherpesviral Host-Directed Strategy Based on CDK7 Covalently Binding Drugs: Target-Selective, Picomolar-Dose, Cross-Virus Reactivity” (Pharmaceutics, 2024)
